Reference: US11141383B1, “Drug loaded flexible chitoplexes nanoparticles” (King Abdulaziz University, priority 2020, dated 2021)
Where two headings read alike, the source gives them in different places.

Legend:
[1] = In vitro release study (dialysis bag, phosphate buffer pH 7.4); assay type: physicochemical
Method: The in vitro release of RSV from the prepared liposomal NPs, chitoplexes nano-formulation and pure drug suspension was studied. A quantity of each preparation containing 9 mg of drug was placed in a firmly sealed dialysis bag (Sigma-Aldrich Inc.) of a molecular weight cut-off 14 kDa. The dialysis bag was immersed in a glass bottle containing 400 mL phosphate buffer of pH 7.4. The bottles were kept in a shaking water bath (Model 1031; GFL Corporation, Burgwedel, Germany) at 37° C. and 100 rpm. The parameters of the in vitro release study were selected to achieve a sink condition. Aliquots of 2 mL were taken from the receptor compartment at predetermined time intervals with immediate replacement. The quantity of RSV in the withdrawn samples was determined spectrophotometrically at 242 nm. The experiment was done in triplicate for each formulation and mean values were calculated.

[2] = cited from earlier work
[3] = system: human colorectal (HCT-116) cells; experiment: Cell viability and cytotoxicity assay (MTT); assay type: cell-based; settings: HCT-116, MTT
Method: This test aimed to determine the effect of the prepared RSV lipid-based NPs formulations on intestinal cell viability and cytotoxicity. The potential effects of both formulations on human colorectal (HCT-116) cells were assessed by 3-(4,5-dimethylthiazol-2-yl)2,5-diphenyl tetrazolium bromide (MTT) assay. Cells were seeded on 96-well plates (1×10^4 cells/well) and incubated at 37° C. under a humidified atmosphere of 5% CO2 for 24 h. […] Each formulation was compared with a drug-free carrier as a negative control. After incubation, SFM in the control and test wells were replaced by 100 μL/well of MTT solution (0.5 mg/ml) in PBS and incubated at 37° C. for another 3 h. The MTT solution was removed and the purple formazan crystals formed at the bottom of the wells were dissolved using 100 μL DMSO/well with shaking for 2 h at room temperature. The intensity of the color obtained was measured at 549 nm using a microplate reader (ELX 800; Bio-Tek Instruments, Winooski, Vt., USA). Data, expressed as the percentage of viable cells, were compared to the survival of a control group. Values of the half maximal inhibitory concentration (IC50) were also estimated. Cells treated with DMSO only were defined as 100%
To examine the biocompatibility and cytotoxic effects of plain and drug loaded liposomal NPs or chitoplexes nano-formulation, HCT-116 cells were treated with different concentrations of these samples for 3 days and the MTT assay was performed to investigate the effect of these formulation on the viability of living cells. This test depends on the production of a colored formazan by the action of the viable cells' mitochondrial enzymes on MTT. Cells were exposed to increasing RSV concentrations of drug loaded liposomal NPs and chitoplexes nano-formulation standardized at certain RSV concentrations. Cells were also incubated with blank liposomal NPs and chitoplexes nano-formulation to exclude the effect of RSV. […]

[4] = cited from earlier work; remark: listed apart in the source

Compound: CC(C)c1nc(N(C)S(C)(=O)=O)nc(-c2ccc(F)cc2)c1/C=C/[C@@H](O)C[C@@H](O)CC(=O)O [RSV pure, Rosuvastatin]
- drug release after 24 h ([1]; dialysis bag 14 kDa, phosphate buffer pH 7.4, 37° C., 100 rpm, 24 h): 37.28±2.86%
- drug release pattern ([1]; dialysis bag, phosphate buffer pH 7.4, FIG. 4): overall low drug release pattern
- water solubility [2]: low
- IC50 ([3]; after 24 h, read-out: IC50 (μM) after 24 h): 248 µM
- IC50 ([3]; after 48 h, read-out: IC50 (μM) after 48 h): 237 µM
- IC50 ([3]; after 72 h, read-out: IC50 (μM) after 72 h): 168 µM
- elimination half-life ([4]; in vivo): ~19 h
- excreted in feces ([4]; in vivo): 90%
- time to maximum plasma concentration ([4]; in vivo): 3 to 5 h
- bound to plasma protein ([4]; mainly to serum albumin): 88%
- oral bioavailability ([4]; oral): ~20%
- orally administered dose absorbed ([4]; oral): about 25%
